ChEMBL document CHEMBL5113423, “Discovery and preclinical profile of sudapyridine (WX-081), a novel anti-tuberculosis agent” (Bioorg Med Chem Lett, 2022)
In brackets after ≈: the same amount, converted by molar mass.

System: Mycobacterium tuberculosis
Assay: Antimycobacterial activity against multidrug-resistant Mycobacterium tuberculosis assessed as mycobacterial growth inhibition
Assay type: functional

Row | Compound | MIC50 [µg/mL] | MIC90 [µg/mL]
1 | COc1nc(-c2ccc(Cl)cc2)ccc1[C@@H](c1ccccc1)[C@@](O)(CCN(C)C)c1cccc2ccccc12 | 0.111 (≈ 0.207 µM) | 0.465 (≈ 0.866 µM)
2 | COc1nc2ccc(Br)cc2cc1[C@@H](c1ccccc1)[C@@](O)(CCN(C)C)c1cccc2ccccc12 [BEDAQUILINE] | 0.032 (≈ 0.0576 µM) | 0.111 (≈ 0.2 µM)
3 | NNC(=O)c1ccncc1 [ISONIAZID] | 4.21 (≈ 30.7 µM) | > 40
4 | NC[C@H]1O[C@H](O[C@H]2[C@H](O)[C@@H](O[C@H]3O[C@H](CO)[C@@H](O)[C@H](N)[C@H]3O)[C@H](N)C[C@@H]2N)[C@H](O)[C@@H](O)[C@@H]1O [KANAMYCIN] | 1.24 (≈ 2.55 µM) | > 40
5 | CO[C@H]1/C=C/O[C@@]2(C)Oc3c(C)c(O)c4c(O)c(c(/C=N/N5CCN(C)CC5)c(O)c4c3C2=O)NC(=O)/C(C)=C\C=C\[C@H](C)[C@H](O)[C@@H](C)[C@@H](O)[C@@H](C)[C@H](OC(C)=O)[C@@H]1C [RIFAMPIN] | > 40 | > 40
